The source made the active and inactive calls. No rule for the calls is given here.
Columns and labels:
Experiment in all cases: serine hydrolase inhibition in mouse brain membranes, late-stage follow-up, selectivity assay for DAGLb inhibitor project, biochemical, gel-based competitive ABPP, fluorescence, set 2 (AID 602323)
[1] = molecular target: Diacylglycerol lipase-beta (Mus musculus) (UniProt Q91WC9); conditions: mouse brain membrane, DAGLb, at 1 µM, active compounds read high
[2] = molecular target: Monoacylglycerol lipase ABHD6 (Mus musculus) (UniProt Q8R2Y0); conditions: mouse brain membrane, at 1 µM, active compounds read high
[3] = molecular target: Platelet-activating factor acetylhydrolase (Mus musculus) (UniProt Q60963); conditions: mouse brain membrane, PLA2G7, at 1 µM, active compounds read high
Chain of Platelet-activating factor acetylhydrolase (Mus musculus) (Q60963 whole entry, looked up): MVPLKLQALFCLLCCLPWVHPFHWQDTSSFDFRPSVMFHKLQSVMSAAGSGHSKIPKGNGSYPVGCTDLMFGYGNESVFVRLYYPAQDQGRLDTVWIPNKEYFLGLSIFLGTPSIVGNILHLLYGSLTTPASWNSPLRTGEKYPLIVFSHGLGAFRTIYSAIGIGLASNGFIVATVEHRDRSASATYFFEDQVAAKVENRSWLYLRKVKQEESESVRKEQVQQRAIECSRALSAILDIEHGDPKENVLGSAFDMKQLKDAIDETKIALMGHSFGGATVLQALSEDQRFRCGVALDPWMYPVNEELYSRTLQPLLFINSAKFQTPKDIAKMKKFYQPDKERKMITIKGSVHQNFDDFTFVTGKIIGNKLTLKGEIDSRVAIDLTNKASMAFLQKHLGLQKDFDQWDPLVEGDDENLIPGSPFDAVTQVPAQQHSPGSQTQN

Chain of Diacylglycerol lipase-beta (Mus musculus) (Q91WC9 whole entry, looked up): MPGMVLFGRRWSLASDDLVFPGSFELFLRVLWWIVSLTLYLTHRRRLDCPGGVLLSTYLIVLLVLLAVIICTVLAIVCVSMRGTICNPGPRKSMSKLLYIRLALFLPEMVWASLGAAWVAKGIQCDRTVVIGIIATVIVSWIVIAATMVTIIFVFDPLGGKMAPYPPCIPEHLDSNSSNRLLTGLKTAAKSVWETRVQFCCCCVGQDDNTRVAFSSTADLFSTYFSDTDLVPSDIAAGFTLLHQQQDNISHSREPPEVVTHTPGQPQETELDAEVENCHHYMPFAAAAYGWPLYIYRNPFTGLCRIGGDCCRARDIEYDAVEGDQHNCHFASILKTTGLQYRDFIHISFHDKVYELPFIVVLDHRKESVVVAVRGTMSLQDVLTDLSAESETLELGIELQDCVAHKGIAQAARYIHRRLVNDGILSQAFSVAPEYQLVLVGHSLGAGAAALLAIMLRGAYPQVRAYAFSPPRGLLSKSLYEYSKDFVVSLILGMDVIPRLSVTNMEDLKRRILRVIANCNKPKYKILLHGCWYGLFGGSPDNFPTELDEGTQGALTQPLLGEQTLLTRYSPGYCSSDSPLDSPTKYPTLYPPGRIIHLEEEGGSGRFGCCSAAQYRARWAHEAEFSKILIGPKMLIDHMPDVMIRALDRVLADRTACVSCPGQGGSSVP
Chain of Monoacylglycerol lipase ABHD6 (Mus musculus) (Q8R2Y0 whole entry, looked up): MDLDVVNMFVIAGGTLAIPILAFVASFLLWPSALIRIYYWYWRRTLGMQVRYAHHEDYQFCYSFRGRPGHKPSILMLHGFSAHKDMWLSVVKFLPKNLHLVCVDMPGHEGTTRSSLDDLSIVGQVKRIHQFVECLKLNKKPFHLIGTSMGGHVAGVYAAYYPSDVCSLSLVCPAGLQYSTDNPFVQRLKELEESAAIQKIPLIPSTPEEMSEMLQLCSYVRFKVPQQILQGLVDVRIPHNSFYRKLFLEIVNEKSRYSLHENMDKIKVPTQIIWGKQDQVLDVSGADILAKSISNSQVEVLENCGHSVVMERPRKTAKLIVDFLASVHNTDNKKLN

Structure (SMILES) | inhibition [1] | inhibition [2] | inhibition [3]
O=C(N1CCCCC1Cc1ccccc1)n1cc(-c2ccc(-c3ccccc3)cc2)nn1 (stereo not given) | 80% | 95% | 40% (inactive)
CC(C)(C)OC(=O)NCCCCCN(CCc1ccccc1)C(=O)n1cc(-c2ccc(OC(F)(F)F)cc2)nn1 | 95% | 90% | 95%
O=C(N1CCCCC1Cc1ccccc1)n1cc(-c2ccc(-c3cccc(CO)c3)cc2)nn1 (stereo not given) | 25% (inactive) | 90% | 0% (inactive)
O=C(N(CCc1ccccc1)Cc1ccco1)n1cc(-c2ccc(OC(F)(F)F)cc2)nn1 | 95% | 95% | 95%
O=C(N1CCCCC1Cc1ccccc1)n1cc(-c2ccc(-c3cccc(C(F)(F)F)c3)cc2)nn1 (stereo not given) | 45% (inactive) | 95% | 25% (inactive)
O=C(N1CCCCC1Cc1ccccc1)n1cc(-c2ccc(-c3ccccc3Cl)cc2)nn1 (stereo not given) | 90% | 90% | 90%
O=C(N1CCCCC1Cc1ccccc1)n1cc(-c2ccc(-c3ccoc3)cc2)nn1 (stereo not given) | 60% | 90% | 45% (inactive)
COc1ccccc1-c1ccc(-c2cn(C(=O)N3CCCCC3Cc3ccccc3)nn2)cc1 (stereo not given) | 85% | 95% | 25% (inactive)
O=C(N1CCCCC1Cc1ccccc1)n1cc(-c2cc(F)cc(F)c2)nn1 (stereo not given) | 85% | 98% | 95%
O=C(N1CCCCC1Cc1ccccc1)n1cc(-c2ccc(-c3ccc4c(c3)OCO4)cc2)nn1 (stereo not given) | 25% (inactive) | 90% | 20% (inactive)
O=C(c1ccc(-c2ccc(-c3cn(C(=O)N4CCCCC4Cc4ccccc4)nn3)cc2)cc1)N1CCCCC1 (stereo not given) | 20% (inactive) | 90% | 0% (inactive)
O=C(N1CCCCC1Cc1ccccc1)n1ncc(-c2ccc(OC(F)(F)F)cc2)n1 (stereo not given) | 50% | 70% | 90%
O=C(N1CCCCC1Cc1ccccc1)n1cc(-c2ccc(-c3ccccc3CO)cc2)nn1 (stereo not given) | 90% | 95% | 20% (inactive)
Cc1ccccc1-c1ccc(-c2cn(C(=O)N3CCCCC3Cc3ccccc3)nn2)cc1 (stereo not given) | 80% | 90% | 80%
O=C(N1CCCCC1Cc1ccccc1)n1cc(-c2ccc(-c3ccc(OC(F)(F)F)cc3)cc2)nn1 (stereo not given) | 20% (inactive) | 90% | 50%
O=C(N1CCCCC1Cc1ccccc1)n1cc(-c2ccc(-c3ccccc3OC(F)(F)F)cc2)nn1 (stereo not given) | 80% | 95% | 60%
O=C(N1CCCCC1Cc1ccccc1)n1cc(-c2ccc(OC(F)(F)F)cc2)nn1 (stereo not given) | 90% | 90% | 90%
O=C(N1CCCCC1Cc1ccccc1)n1cc(-c2ccc(-c3ccc(C(F)(F)F)cc3)cc2)nn1 (stereo not given) | 25% (inactive) | 80% | 50%
CC(C)CN(CCc1ccccc1)C(=O)n1cc(-c2ccc(OC(F)(F)F)cc2)nn1 | 90% | 95% | 95%
O=C(N1CCCCC1Cc1ccccc1)n1cc(-c2cccc(-c3ccccc3)c2)nn1 (stereo not given) | 75% | 95% | 30% (inactive)
O=C(N1CCCCC1Cc1ccccc1)n1cc(-c2ccc(Br)cc2)nn1 (stereo not given) | 85% | 98% | 95%
O=C(N1CCCCC1Cc1ccccc1)n1cc(-c2ccccc2-c2ccccc2)nn1 (stereo not given) | 75% | 95% | 40% (inactive)
O=C(c1ccc(-c2cn(C(=O)N3CCCCC3Cc3ccccc3)nn2)cc1)N1CCCCC1 (stereo not given) | 95% | 95% | 30% (inactive)
O=C(N1CCCCC1Cc1ccccc1)n1cc(-c2ccc(-c3ccccc3C(F)(F)F)cc2)nn1 (stereo not given) | 75% | 90% | 25% (inactive)
O=C(N1CCCCC1Cc1ccccc1)n1ncc(C(O)(c2ccccc2)c2ccccc2)n1 (stereo not given) | 80% | 90% | 0% (inactive)

Reference: PubChem BioAssay AID602323 (The Scripps Research Institute Molecular Screening Center, 2012)
